# How the values were obtained:
# [1] = molecular target: Kelch domain of human KEAP1 (321-624 aa) (Homo sapiens (Human), UniProt Q14145); assay: KEAP1 KELCH ThermoFluor binding assay; conditions: KEAP Kelch […], 1,8-ANS, pH 7.0, average of results obtained, read-out: Tf Kd;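 also: Ligand-induced melting temperature shift of E. coli-expressed KEAP1 Kelch protein, Kd estimated from concentration-response curves of ΔTm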
# Source text: The shift in the melting point described as a ΔTm is proportional to the concentration and affinity of the ligand. The compound potency may be compared as a rank order of either ΔTm values at a single compound concentration or in terms of KD values, estimated from concentration response curves.
# The protein was expressed in E. coli with 6His tag that was cleaved prior to receipt for use.
# Protein (KEAP Kelch) and compound solutions were dispensed into black 384-well polypropylene PCR microplates (Abgene) and overlayed with silicone oil (1 μL, Fluka, type DC 200) to prevent evaporation.
# [2] = system: Glo-Response ARE-luc2P HEK293 cell line; assay: ARE luciferase reporter cell-based assay; conditions: Homo sapiens, HEK293, 24 h, average of results obtained;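 also: luciferase signal tracks Nrf2 activation of the ARE once compounds disrupt KEAP1-Nrf2 binding, read with One-Glo reagent, DMSO serving as low control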
# Kelch domain of human KEAP1 (321-624 aa), sequence (Q14145 321-624): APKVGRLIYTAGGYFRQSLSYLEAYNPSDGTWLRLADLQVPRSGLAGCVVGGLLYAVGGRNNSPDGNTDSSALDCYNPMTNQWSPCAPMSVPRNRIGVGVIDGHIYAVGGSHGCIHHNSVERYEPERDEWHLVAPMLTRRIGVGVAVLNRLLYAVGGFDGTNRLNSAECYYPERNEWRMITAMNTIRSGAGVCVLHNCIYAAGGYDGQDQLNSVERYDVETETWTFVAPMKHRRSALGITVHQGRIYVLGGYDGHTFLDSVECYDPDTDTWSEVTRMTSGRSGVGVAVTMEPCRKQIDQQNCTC
structure (smiles),measurement,setting,value
"Cc1ccc([C@@H](CC(=O)O)c2cc(OC(F)F)c3c(c2)nnn3C)cc1CN1C[C@H]2CCCCN2c2ncccc2S1(=O)=O (single isomer, unassigned) [Example 3, (*R)-3-(7-(Difluoromethoxy)-1-methyl-1H-benzo[d][1,2,3]triazol-5-yl)-3-(3-(((*R)-5,5-dioxido-7,7a,8,9,10,11-hexahydro-6H-dipyrido[2,1-d:2′,3′-f][1,2,5]thiadiazepin-6-yl)methyl)-4-methylphenyl)propanoic Acid]",Kd,[1],0.041 nM
same,EC50,[2],35 nM
"Cc1ccc([C@H](CC(=O)O)c2cc(OC3CC3)c3c(c2)nnn3C)cc1CN1C[C@H]2CCCN2c2ncccc2S1(=O)=O (single isomer, unassigned) [Example 5, (*S)-3-(7-Cyclopropoxy-1-methyl-1H-benzo[d][1,2,3]triazol-5-yl)-3-(3-(((R)-5,5-dioxido-7a,8,9,10-tetrahydropyrido[2,3-f]pyrrolo[2,1-d][1,2,5]thiadiazepin-6(7H)-yl)methyl)-4-methylphenyl)propanoic Acid]",Kd,[1],0.518 nM
same,EC50,[2],110 nM
"Cc1ccc([C@@H](CC(=O)O)c2cc(OC3CC3)c3c(c2)nnn3C)cc1CN1C[C@H]2CCCN2c2ncccc2S1(=O)=O (single isomer, unassigned) [Example 6, (*R)-3-(7-Cyclopropoxy-1-methyl-1H-benzo[d][1,2,3]triazol-5-yl)-3-(3-(((R)-5,5-dioxido-7a,8,9,10-tetrahydropyrido[2,3-f]pyrrolo[2,1-d][1,2,5]thiadiazepin-6(7H)-yl)methyl)-4-methylphenyl)propanoic Acid]",Kd,[1],0.089 nM
same,EC50,[2],42 nM
"Cc1ccc([C@H](CC(=O)O)c2ccn3c(C(F)(F)F)nnc3c2C)cc1CN1CC2(CC2)Oc2ncccc2S1(=O)=O (single isomer, unassigned) [Example 7, (*S)-3-(3-((1′,1′-Dioxidospiro[cyclopropane-1,4′-pyrido[2,3-b][1,4,5]oxathiazepin]-2′(3′H)-yl)methyl)-4-methylphenyl)-3-(8-methyl-3-(trifluoromethyl)-[1,2,4]triazolo[4,3-a]pyridin-7-yl)propanoic Acid]",Kd,[1],0.127 nM
same,EC50,[2],74 nM
"Cc1ccc([C@@H](CC(=O)O)c2ccn3c(C(F)(F)F)nnc3c2C)cc1CN1CC2(CC2)Oc2ncccc2S1(=O)=O (single isomer, unassigned) [Example 8, (*R)-3-(3-((1′,1′-dioxidospiro[cyclopropane-1,4′-pyrido[2,3-b][1,4,5]oxathiazepin]-2′(3′H)-yl)methyl)-4-methylphenyl)-3-(8-methyl-3-(trifluoromethyl)-[1,2,4]triazolo[4,3-a]pyridin-7-yl)propanoic Acid]",Kd,[1],0.188 nM
same,EC50,[2],660 nM
"Cc1ccc([C@H](CC(=O)O)c2ccn3c(C(F)(F)F)nnc3c2C)cc1CN1C[C@H]2CCCCN2c2ncc(C#N)cc2S1(=O)=O (single isomer, unassigned) [Example 9, (*S)-3-(3-(((*R)-3-Cyano-5,5-dioxido-7,7a,8,9,10,11-hexahydro-6H-dipyrido[2,1-d:2′,3′-f][1,2,5]thiadiazepin-6-yl)methyl)-4-methylphenyl)-3-(8-methyl-3-(trifluoromethyl)-[1,2,4]triazolo[4,3-a]pyridin-7-yl)propanoic Acid]",Kd,[1],< 1 nM
same,EC50,[2],3.8 nM
"Cc1ccc([C@H](CC(=O)O)c2ccn3c(C(F)(F)F)nnc3c2C)cc1CN1C[C@@H]2CCCCN2c2ncc(C#N)cc2S1(=O)=O (single isomer, unassigned) [Example 10, (*S)-3-(3-(((*S)-3-Cyano-5,5-dioxido-7,7a,8,9,10,11-hexahydro-6H-dipyrido[2,1-d:2′,3′-f][1,2,5]thiadiazepin-6-yl)methyl)-4-methylphenyl)-3-(8-methyl-3-(trifluoromethyl)-[1,2,4]triazolo[4,3-a]pyridin-7-yl)propanoic Acid]",Kd,[1],< 1 nM
same,EC50,[2],5.2 nM
"Cc1ccc([C@@H](CC(=O)O)c2ccc3c(nnn3CC3CC3)c2C)cc1CN1C[C@]2(C)CCCN2c2ncccc2S1(=O)=O (single isomer, unassigned) [Example 13, (*R)-3-(1-(Cyclopropylmethyl)-4-methyl-1H-benzo[d][1,2,3]triazol-5-yl)-3-(4-methyl-3-(((*S)-7a-methyl-5,5-dioxido-7a,8,9,10-tetrahydropyrido[2,3-f]pyrrolo[2,1-d][1,2,5]thiadiazepin-6(7H)-yl)methyl)phenyl)propanoic Acid]",Kd,[1],0.079 nM
same,EC50,[2],37.8 nM
"CCn1nnc2c(C)c([C@@H](c3ccc(C)c(CN4CC5(CCOCC5)Oc5ncccc5S4(=O)=O)c3)C(C)(C)C(=O)O)ccc21 (single isomer, unassigned) [Example 16, (*R)-3-(3-((1′,1′-Dioxido-2,3,5,6-tetrahydrospiro[pyran-4,4′-pyrido[2,3-b][1,4,5]oxathiazepin]-2′(3′H)-yl)methyl)-4-methylphenyl)-3-(1-ethyl-4-methyl-1H-benzo[d][1,2,3]triazol-5-yl)-2,2-dimethylpropanoic Acid]",Kd,[1],838 nM
same,EC50,[2],233 nM
"Cc1cnc2c(c1)S(=O)(=O)N(Cc1cc([C@H](c3ccn4c(C(F)(F)F)nnc4c3C)C(C)(C)C(=O)O)ccc1C)CC1(CCOCC1)O2 (single isomer, unassigned) [Example 19, (*R)-2,2-Dimethyl-3-(4-methyl-3-((8′-methyl-1′,1′-dioxido-2,3,5,6-tetrahydrospiro[pyran-4,4′-pyrido[2,3-b][1,4,5]oxathiazepin]-2′(3′H)-yl)methyl)phenyl)-3-(8-methyl-3-(trifluoromethyl)-[1,2,4]triazolo[4,3-a]pyridin-7-yl)propanoic Acid]",Kd,[1],1280 nM
same,EC50,[2],789 nM
"CCn1nnc2c(C)c([C@@H](CC(=O)O)c3ccc(C)c(CN4C[C@H]5CCCN5c5ncccc5S4(=O)=O)c3)ccc21 (single isomer, unassigned) [Example 21, (*S)-3-(3-(((R)-5,5-Dioxido-7a,8,9,10-tetrahydropyrido[2,3-f]pyrrolo[2,1-d][1,2,5]thiadiazepin-6(7H)-yl)methyl)-4-methylphenyl)-3-(1-ethyl-4-methyl-1H-benzo[d][1,2,3]triazol-5-yl)propanoic Acid]",Kd,[1],0.273 nM
same,EC50,[2],28 nM
"CCn1nnc2c(C)c([C@H](CC(=O)O)c3ccc(C)c(CN4C[C@H]5CCCN5c5ncccc5S4(=O)=O)c3)ccc21 (single isomer, unassigned) [Example 22, (*R)-3-(3-(((R)-5,5-Dioxido-7a,8,9,10-tetrahydropyrido[2,3-f]pyrrolo[2,1-d][1,2,5]thiadiazepin-6(7H)-yl)methyl)-4-methylphenyl)-3-(1-ethyl-4-methyl-1H-benzo[d][1,2,3]triazol-5-yl)propanoic Acid]",Kd,[1],0.081 nM
same,EC50,[2],3.9 nM
"Cc1ccc([C@H](CC(=O)O)c2ccc3c(nnn3C3CC3)c2C)cc1CN1C[C@@H]2COCCN2c2ncccc2S1(=O)=O (single isomer, unassigned) [Example 24, (*S)-3-(1-Cyclopropyl-4-methyl-1H-benzo[d][1,2,3]triazol-5-yl)-3-(3-(((*R)-5,5-dioxido-7a,8,10,11-tetrahydro-[1,4]oxazino[3,4-d]pyrido[2,3-f][1,2,5]thiadiazepin-6(7H)-yl)methyl)-4-methylphenyl)propanoic Acid]",Kd,[1],0.264 nM
same,EC50,[2],4.1 nM
"Cc1ccc([C@@H](CC(=O)O)c2ccc3c(nnn3C3CC3)c2C)cc1CN1C[C@@H]2COCCN2c2ncccc2S1(=O)=O (single isomer, unassigned) [Example 25, (*R)-3-(1-Cyclopropyl-4-methyl-1H-benzo[d][1,2,3]triazol-5-yl)-3-(3-(((*R)-5,5-dioxido-7a,8,10,11-tetrahydro-[1,4]oxazino[3,4-d]pyrido[2,3-f][1,2,5]thiadiazepin-6(7H)-yl)methyl)-4-methylphenyl)propanoic Acid]",Kd,[1],2.12 nM
same,EC50,[2],21 nM
"Cc1ccc([C@H](CC(=O)O)c2ccn3c(C(F)(F)F)nnc3c2C)cc1CN1CC2(COC2)Oc2ccccc2S1(=O)=O (single isomer, unassigned) [Example 26, (*S)-3-(3-((1,1-Dioxidospiro[benzo[b][1,4,5]oxathiazepine-4,3′-oxetan]-2(3H)-yl)methyl)-4-methylphenyl)-3-(8-methyl-3-(trifluoromethyl)-[1,2,4]triazolo[4,3-a]pyridin-7-yl)propanoic Acid]",Kd,[1],0.174 nM
same,EC50,[2],32 nM
"Cc1ccc([C@@H](CC(=O)O)c2ccn3c(C(F)F)nnc3c2C)cc1CN1C[C@@H]2CCCCN2c2ncc(C#N)cc2S1(=O)=O (single isomer, unassigned) [Example 29, (*R)-3-(3-(((*S)-3-Cyano-5,5-dioxido-7,7a,8,9,10,11-hexahydro-6H-dipyrido[2,1-d:2′,3′-f][1,2,5]thiadiazepin-6-yl)methyl)-4-methylphenyl)-3-(3-(difluoromethyl)-8-methyl-[1,2,4]triazolo[4,3-a]pyridin-7-yl)propanoic Acid]",Kd,[1],< 1 nM
same,EC50,[2],50.9 nM
"Cc1ccc([C@@H](CC(=O)O)c2ccn3c(C(F)F)nnc3c2C)cc1CN1C[C@H]2CCCCN2c2ncc(C#N)cc2S1(=O)=O (single isomer, unassigned) [Example 30, (*R)-3-(3-(((*R)-3-Cyano-5,5-dioxido-7,7a,8,9,10,11-hexahydro-6H-dipyrido[2,1-d:2′,3′-f][1,2,5]thiadiazepin-6-yl)methyl)-4-methylphenyl)-3-(3-(difluoromethyl)-8-methyl-[1,2,4]triazolo[4,3-a]pyridin-7-yl)propanoic Acid]",Kd,[1],< 1 nM
same,EC50,[2],73.7 nM
"Cc1ccc([C@@H](CC(=O)O)c2ccn3c(C(F)(F)F)nnc3c2C)nc1CN1C[C@@H]2CCCCN2c2ncc(C#N)cc2S1(=O)=O (single isomer, unassigned) [Example 34, (*S)-3-(6-(((*S)-3-Cyano-5,5-dioxido-7,7a,8,9,10,11-hexahydro-6H-dipyrido[2,1-d:2′,3′-f][1,2,5]thiadiazepin-6-yl)methyl)-5-methylpyridin-2-yl)-3-(8-methyl-3-(trifluoromethyl)-[1,2,4]triazolo[4,3-a]pyridin-7-yl)propanoic Acid]",Kd,[1],< 1 nM
same,EC50,[2],119 nM

# Source: patent publication US10947252B2, “Inhibitors of KEAP1-Nrf2 protein-protein interaction” (Janssen Pharmaceutica NV, priority 2018, dated 2021)
